The source of these data is patent US12319672B2, “Alpha-D-galactopyranoside derivatives” (Idorsia Pharmaceuticals Ltd, priority 2019, dated 2025).

For one assay, the target named is human Gal-3 (hGal-3) (Homo sapiens (Human), UniProt P17931). The assay can be described thus: Competitive binding assay: binding of biotinylated hGal-3 to microplate-adsorbed asialofetuin (ASF). The note with it: Activity on hGal-3; mean values of several measurements. In short, it runs like this: (§1)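 Biotin-hGal-3/hGal-1 300-1000 ng/mL + cpd (DMSO dilutions) on ASF-coated plate, 3 h 4° C; wash; SA-HRP 80 ng/mL 1 h 4° C; wash; ABTS. IC50 = mean of several runs. hGal-1 preferably Cys→Ser (all six) mutant.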
human Gal-3 (hGal-3), sequence (P17931 whole entry): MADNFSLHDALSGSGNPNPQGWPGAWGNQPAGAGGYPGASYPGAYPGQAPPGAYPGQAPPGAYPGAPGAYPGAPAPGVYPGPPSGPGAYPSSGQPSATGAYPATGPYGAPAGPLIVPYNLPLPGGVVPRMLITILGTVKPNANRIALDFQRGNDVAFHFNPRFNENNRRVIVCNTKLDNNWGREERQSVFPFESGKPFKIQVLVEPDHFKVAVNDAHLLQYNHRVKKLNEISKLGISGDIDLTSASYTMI

A further assay concerns the target human Gal-1 (hGal-1). The assay can be described thus: Competitive binding assay: binding of biotinylated hGal-1 to microplate-adsorbed asialofetuin (ASF). The note with it: Activities on hGal-1; mean values of several measurements. In outline: as §1

human Gal-1 (hGal-1), sequence (P09382 2-135 limits assumed): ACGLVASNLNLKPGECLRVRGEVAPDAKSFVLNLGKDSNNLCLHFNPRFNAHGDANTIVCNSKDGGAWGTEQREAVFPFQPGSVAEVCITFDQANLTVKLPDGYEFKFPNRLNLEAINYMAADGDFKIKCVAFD

The IC50 is the concentration needed to halve the response being measured. Low readings indicate greater potency in that assay, high ones weaker potency in that assay. Take `CO[C@@H]1[C@@H](n2cc(-c3cc(F)c(F)c(F)c3)nn2)[C@@H](O)[C@@H](CO)O[C@@H]1Cc1cc(C23CCC(N)(CC2)CC3)on1` [Ex 1.131]: the IC50 was 140 nM at human Gal-3 (hGal-3) and 7.44 µM on human Gal-1 (hGal-1).

Regarding `CO[C@@H]1[C@@H](n2cc(-c3cc(F)c(F)c(F)c3)nn2)[C@@H](O)[C@@H](CO)O[C@@H]1Cc1cc(C(C)(C)NC(=O)OC(C)(C)C)no1` [Ex 1.216], the IC50 at human Gal-3 (hGal-3) is 340 nM; on human Gal-1 (hGal-1) it was 3.97 µM.

Take `CO[C@@H]1[C@@H](n2cc(-c3cc(F)c(Cl)c(F)c3)nn2)[C@@H](O)[C@@H](CO)O[C@@H]1CC1CC(C2CCNCC2)=NO1` (some centres unmarked) [Ex 1.146]: the values for the IC50 at human Gal-3 (hGal-3) and on human Gal-1 (hGal-1) were 240 nM and 4.66 µM, respectively.

With `CC(C)O[C@@H]1[C@@H](n2cc(-c3cc(F)c(F)c(F)c3)nn2)[C@@H](O)[C@@H](CO)O[C@@H]1Cc1cc(C2CCN(C(=O)OC(C)(C)C)CC2)on1` [Example 2.23, tert-butyl 4-(3-(((2R,3R,4S,5R,6R)-5-hydroxy-6-(hydroxymethyl)-3-isopropoxy-4-(4-(3,4,5-trifluorophenyl)-1H-1,2,3-triazol-1-yl)tetrahydro-2H-pyran-2-yl)methyl)isoxazol-5-yl)piperidine-1-carboxylate], the IC50 amounted to 220 nM on human Gal-3 (hGal-3) and 2.05 µM at human Gal-1 (hGal-1).

Take `CO[C@@H]1[C@@H](n2cc(-c3ccc(C)c(F)c3F)nn2)[C@@H](O)[C@@H](CO)O[C@@H]1Cc1cc(C2(Oc3cncc(Br)c3)COC2)on1` [Ex 1.322]: the IC50 on human Gal-3 (hGal-3) is 310 nM; on human Gal-1 (hGal-1) it was over 100 µM.

In the case of `CO[C@@H]1[C@@H](n2cc(-c3cc(F)c(F)c(F)c3)nn2)[C@@H](O)[C@@H](CO)O[C@@H]1Cc1cc(C2CCN([S+]([O-])C(C)(C)C)CC2)on1` (mixture of isomers) [Example 3.55, (2R,3R,4S,5R,6R)-6-((5-(1-((RS)-tert-butylsulfinyl)piperidin-4-yl)isoxazol-3-yl)methyl)-2-(hydroxymethyl)-5-methoxy-4-(4-(3,4,5-trifluorophenyl)-1H-1,2,3-triazol-1-yl)tetrahydro-2H-pyran-3-ol], the IC50 at human Gal-3 (hGal-3) turned out to be 90 nM; at human Gal-1 (hGal-1), 2.99 µM.

As for `CO[C@@H]1[C@@H](n2cc(-c3cc(F)c(F)c(F)c3)nn2)[C@@H](O)[C@@H](CO)O[C@@H]1Cc1cc(C2CCNC(=O)C2)no1` (some centres unmarked) [Ex 1.92], the values for the IC50 at human Gal-3 (hGal-3) and on human Gal-1 (hGal-1) were 260 nM and 4.91 µM, respectively.

In the case of `CO[C@@H]1[C@@H](n2cc(-c3cc(F)c(F)c(F)c3)nn2)[C@@H](O)[C@@H](CO)O[C@@H]1CC1CC(C(C)(C)C)=NO1` (some centres unmarked) [Ex 1.265], the half-inhibitory concentration (IC50) was determined as 250 nM at human Gal-3 (hGal-3) and 2.58 µM at human Gal-1 (hGal-1).

With `O=c1cc(C2=NOC(C[C@H]3O[C@H](CO)[C@H](O)[C@H](n4cc(-c5cc(F)c(F)c(F)c5)nn4)[C@H]3O)C2)cc[nH]1` (mixture of isomers) [Example 2.03], the figures for the half-inhibitory concentration (IC50) on human Gal-3 (hGal-3) and on human Gal-1 (hGal-1) were 300 nM and 0.55 µM, respectively.

For the compound `CO[C@@H]1[C@@H](n2cc(-c3cc(F)c(F)c(F)c3)nn2)[C@@H](O)[C@@H](CO)O[C@@H]1Cc1cc(C2(O)CCCC2)no1` [Ex 1.312], the IC50 on human Gal-3 (hGal-3) came to 140 nM; on human Gal-1 (hGal-1), 4.24 µM.

As for `CO[C@@H]1[C@@H](n2cc(-c3cc(F)c(C)c(F)c3)nn2)[C@@H](O)[C@@H](CO)O[C@@H]1CC1CC(C2CCN(C(=O)OC(C)(C)C)CC2)=NO1` (some centres unmarked) [Ex 1.135], the figures for the half-maximal inhibitory concentration (IC50) on human Gal-3 (hGal-3) and at human Gal-1 (hGal-1) were 100 nM and 9 µM, respectively.

As for `CCNC(=O)O[C@@H]1[C@@H](n2cc(-c3ccc(C)c(F)c3F)nn2)[C@@H](O)[C@@H](CO)O[C@@H]1Cc1cc(C(C)(C)C)no1` [Example 2.51, (2R,3R,4S,5R,6R)-2-((3-(tert-butyl)isoxazol-5-yl)methyl)-4-(4-(2,3-difluoro-4-methylphenyl)-1H-1,2,3-triazol-1-yl)-5-hydroxy-6-(hydroxymethyl)tetrahydro-2H-pyran-3-yl ethylcarbamate], the half-inhibitory concentration (IC50) is 46 nM on human Gal-3 (hGal-3) and over 100 µM on human Gal-1 (hGal-1).

As to `CO[C@@H]1[C@@H](n2cc(-c3cc(F)c(F)c(F)c3)nn2)[C@@H](O)[C@@H](CO)O[C@@H]1Cc1cc(C(C)(C)O)no1` [Example 2.60, (2R,3R,4S,5R,6R)-2-(hydroxymethyl)-6-((3-(2-hydroxypropan-2-yl)isoxazol-5-yl)methyl)-5-methoxy-4-(4-(3,4,5-trifluorophenyl)-1H-1,2,3-triazol-1-yl)tetrahydro-2H-pyran-3-ol], the figures for the half-inhibitory concentration (IC50) at human Gal-3 (hGal-3) and on human Gal-1 (hGal-1) were 400 nM and 7.39 µM, respectively.

Take `CO[C@@H]1[C@@H](n2cc(-c3ccc(Cl)c(F)c3F)nn2)[C@@H](O)[C@@H](CO)O[C@@H]1Cc1cc(C(C)(C)C)no1` [Ex 1.258]: the IC50 worked out at 37 nM on human Gal-3 (hGal-3) and 0.98 µM at human Gal-1 (hGal-1).

For `CO[C@@H]1[C@@H](n2cc(-c3cc(F)c(F)c(F)c3)nn2)[C@@H](O)[C@@H](CO)O[C@@H]1Cc1cc(C(C)(C)C)no1` [Ex 1.206], the half-inhibitory concentration (IC50) on human Gal-3 (hGal-3) was found to be 83 nM; at human Gal-1 (hGal-1) it was 1.34 µM.

On to `CCOC(=O)N1CCC(c2cc(C[C@H]3O[C@H](CO)[C@H](O)[C@H](n4cc(-c5cc(F)c(F)c(F)c5)nn4)[C@H]3O)no2)CC1` [Example 3.26, ethyl 4-(3-(((2R,3R,4R,5R,6R)-3,5-dihydroxy-6-(hydroxymethyl)-4-(4-(3,4,5-trifluorophenyl)-1H-1,2,3-triazol-1-yl)tetrahydro-2H-pyran-2-yl)methyl)isoxazol-5-yl)piperidine-1-carboxylate], for which the results for the IC50 at human Gal-3 (hGal-3) and on human Gal-1 (hGal-1) were 68 nM and 0.93 µM, respectively.

With `CO[C@@H]1[C@@H](n2cc(-c3ccc(Cl)c(F)c3F)nn2)[C@@H](O)[C@@H](CO)O[C@@H]1Cc1cc(C2CCCCC2)on1` [Ex 1.172], the IC50 at human Gal-3 (hGal-3) is 260 nM; on human Gal-1 (hGal-1), 57 µM.

As to `CO[C@@H]1[C@@H](n2cc(-c3ccc(C)c(F)c3)nn2)[C@@H](O)[C@@H](CO)O[C@@H]1Cc1cc(C2CCCCC2)on1` [Ex 1.171], the values for the IC50 on human Gal-3 (hGal-3) and at human Gal-1 (hGal-1) were 440 nM and 13.2 µM, respectively.

Consider `CN1CCC(c2cc(C[C@H]3O[C@H](CO)[C@H](O)[C@H](n4cc(-c5cc(F)c(F)c(F)c5)nn4)[C@H]3O)no2)CC1` [Example 3.29, (2R,3R,4R,5R,6R)-2-(hydroxymethyl)-6-((5-(1-methylpiperidin-4-yl)isoxazol-3-yl)methyl)-4-(4-(3,4,5-trifluorophenyl)-1H-1,2,3-triazol-1-yl)tetrahydro-2H-pyran-3,5-diol], for which the IC50 on human Gal-3 (hGal-3) is 270 nM; at human Gal-1 (hGal-1) it was 15.8 µM.

With `CO[C@@H]1[C@@H](n2cc(-c3cc(F)c(Cl)c(F)c3)nn2)[C@@H](O)[C@@H](CO)O[C@@H]1Cc1cc(C(C)(C)C)on1` [Ex 1.194], the IC50 is 180 nM on human Gal-3 (hGal-3) and 3.51 µM on human Gal-1 (hGal-1).

`CO[C@@H]1[C@@H](n2cc(-c3cc(F)c(F)c(F)c3)nn2)[C@@H](O)[C@@H](CO)O[C@@H]1C[C@@H]1CN(C2CCN(C(C)=O)CC2)C(=O)O1` [Example 5.05, (R)-3-(1-acetylpiperidin-4-yl)-5-(((2R,3R,4S,5R,6R)-5-hydroxy-6-(hydroxymethyl)-3-methoxy-4-(4-(3,4,5-trifluorophenyl)-1H-1,2,3-triazol-1-yl)tetrahydro-2H-pyran-2-yl)methyl)oxazolidin-2-one]: the IC50 is 330 nM on human Gal-3 (hGal-3) and 0.3 µM on human Gal-1 (hGal-1).

Consider `CO[C@@H]1[C@@H](n2cc(-c3cc(F)c(F)c(F)c3)nn2)[C@@H](O)[C@@H](CO)O[C@@H]1Cc1cc(C2CCN(C(=O)NC(C)C)CC2)on1` [Example 3.38, 4-(3-(((2R,3R,4S,5R,6R)-5-hydroxy-6-(hydroxymethyl)-3-methoxy-4-(4-(3,4,5-trifluorophenyl)-1H-1,2,3-triazol-1-yl)tetrahydro-2H-pyran-2-yl)methyl)isoxazol-5-yl)-N-isopropylpiperidine-1-carboxamide], for which the IC50 came to 43 nM at human Gal-3 (hGal-3) and 0.45 µM on human Gal-1 (hGal-1).

Take `CC(=O)O[C@@H]1[C@@H](n2cc(-c3ccc(C)c(F)c3F)nn2)[C@@H](O)[C@@H](CO)O[C@@H]1Cc1cc([C@@H]2CCC[C@H]2O)on1` [Ex 1.344]: the IC50 at human Gal-3 (hGal-3) came to 40 nM; at human Gal-1 (hGal-1), 17 µM.

Consider `CO[C@@H]1[C@@H](n2cc(-c3cc(F)c(F)c(F)c3)nn2)[C@@H](O)[C@@H](CO)O[C@@H]1Cc1cc(C(C)(C)C)on1` [Ex 1.63], for which the IC50 at human Gal-3 (hGal-3) was determined as 340 nM; on human Gal-1 (hGal-1), 2.54 µM.

For `CO[C@@H]1[C@@H](n2cc(-c3cccc(F)c3F)nn2)[C@@H](O)[C@@H](CO)O[C@@H]1CC1CC(C2CCN(C(=O)OC(C)(C)C)CC2)=NO1` (some centres unmarked) [Ex 1.329], the IC50 turned out to be 69 nM on human Gal-3 (hGal-3) and 0.44 µM on human Gal-1 (hGal-1).

Turning to `CO[C@@H]1[C@@H](n2cc(-c3cc(F)c(F)c(F)c3)nn2)[C@@H](O)[C@@H](CO)O[C@@H]1C[C@H]1CN(C2CCN(S(C)(=O)=O)CC2)C(=O)O1` [Example 5.07, (S)-5-(((2R,3R,4S,5R,6R)-5-hydroxy-6-(hydroxymethyl)-3-methoxy-4-(4-(3,4,5-trifluorophenyl)-1H-1,2,3-triazol-1-yl)tetrahydro-2H-pyran-2-yl)methyl)-3-(1-(methylsulfonyl)piperidin-4-yl)oxazolidin-2-one], the concentration for half-maximal inhibition (IC50) on human Gal-3 (hGal-3) turned out to be 280 nM; on human Gal-1 (hGal-1), 7.57 µM.

Turning to `CCO[C@@H]1[C@@H](n2cc(-c3cc(F)c(F)c(F)c3)nn2)[C@@H](O)[C@@H](CO)O[C@@H]1Cc1cc(C2CCN(C(=O)OC(C)(C)C)CC2)on1` [Example 2.17, tert-butyl 4-(3-(((2R,3R,4S,5R,6R)-3-ethoxy-5-hydroxy-6-(hydroxymethyl)-4-(4-(3,4,5-trifluorophenyl)-1H-1,2,3-triazol-1-yl)tetrahydro-2H-pyran-2-yl)methyl)isoxazol-5-yl)piperidine-1-carboxylate], the concentration for half-maximal inhibition (IC50) at human Gal-3 (hGal-3) was 130 nM; on human Gal-1 (hGal-1), 0.78 µM.

With `CO[C@@H]1[C@@H](n2cc(-c3cc(F)c(F)c(F)c3)nn2)[C@@H](O)[C@@H](CO)O[C@@H]1Cc1cc(C2(O)CCCN(C(=O)OC(C)(C)C)CC2)on1` (some centres unmarked) [Ex 1.76], the values for the half-inhibitory concentration (IC50) at human Gal-3 (hGal-3) and on human Gal-1 (hGal-1) were 4620 nM and 13.3 µM, respectively.
